Measurements: US20250221968A1, “TREATMENTS AND METHODS FOR INCREASING DOPAMINE” (Oxford University Innovation Limited, priority 2022, published 2025)
“Also recorded” adds a separate entry of the source.

Legend:
nAChRs [1] = test: Ex vivo slice voltammetry (FCV): [DA]o evoked by light pulse after prior electrical stimulus, striatal slices from DAT-Cre mice; assay type: cell-based, mouse; conditions: DHβE 1 μM
Description: (§1) Stimulations were timed to avoid FCV scans.
The Inventors also explored whether prior ChI activation limits subsequent DA release when driven by targeted optogenetic activation of DA axons (DADA). The Inventors used an electrical stimulus to initially drive DA release (DADA+DAChI) and then assessed DADA driven by a subsequent light activation of ChR2-expressing DA axons in ex vivo striatal slices from DAT-Cre mice (FIG. 2a,b). […] For inter-stimulus intervals <100 ms (DLS) or <50 ms (NAcc), this depression was relieved when a nAChR antagonist was present (DHβE, 1 μM).

nAChRs [2] = test: Calcium imaging of GCaMP6f in DA axons in DLS, ex vivo slices of DAT-Cre:Ai95D mice; assay type: cell-based, mouse; conditions: DHβE 1 μM
Description: As in a previous study^21, an Olympus BX51WI microscope equipped with a OptoLED Lite system (CAIRN Research), Prime Scientific CMOS (sCMOS) Camera (Teledyne Photometrics), and a ×40/0.8 NA water-objective (Olympus UK) was used for wide-field fluorescence imaging of GCaMP6f in dopaminergic axons in DLS in ex vivo slices in response to single and trains (4 pulses, 100 Hz) of electrical stimulus pulses. Images were acquired at 16.6 Hz frame rate every 2.5 min using Micro-Manager 1.4, with stimulation and recording synchronised using custom-written procedures in Igor Pro 6 (WaveMetrics) and an ITC-18 A/D board (Instrutech). Image files were analysed with Matlab R2019b and Fiji 1.5. The inventors extracted fluorescence intensity from the region of interest (ROI) and from an equal background area where there was no GCaMP6f expression (on the stimulating electrode). After background subtraction, the Ca^2+ transients were bleach-corrected by fitting an exponential curve function through both the baseline (2 s prior to stimulation) and the last 1 s in a 7.2 s recording window. The order of single and train stimulations was alternated and equally distributed and data were collected in duplicate before and after a change in extracellular experimental condition. Data are expressed as ΔF/F where F is the fitted curve. […]

nAChRs [3] = test: 6-OHDA lesioning and cylinder test (single paw reaching), mouse model of PD; assay type: in vivo; conditions: unilateral 6-OHDA lesioned mice, 10 μg into lesioned striatum, 10 min after injection
Description: 6-OHDA Lesioning and Reaching Task: On the lesioning day, 6-hydroxydopamine was injected into the right dorsolateral striatum through the pre-implanted cannula (1 μl of a 0.9% saline solution containing 4 μg/μL 6-OHDA (Sigma-Aldrich) and 0.02% acetic acid) over 5 min. On the testing day, mecamylamine (10 μg/side) was injected via the cannula in a volume of 0.5 μl over 1 min into the lesioned (right) striatum. Animals were sacrificed immediately after behavioural testing. The 6-OHDA-induced loss of dopamine axons was confirmed by the ˜50% decrease of fluorescence intensity of TH staining in slices compared to the contralateral DLS which was measured with ImageJ (1.52p). The anterior commissure used as 0% background fluorescence. Animals were briefly sedated with isoflurane during the injection of 6-OHDA and mecamylamine.
A cylinder test was performed before and 10 min after 6-OHDA injection to confirm an acute effect of 6-OHDA. After one day of […], the test was performed again before and 10 min after mecamylamine injection. No habituation of the mice to the cylinder was conducted. During the test, mice were individually placed into a glass cylinder (diameter 19 cm, height 25 cm). […] Only wall touches with a single paw, ipsilateral or contralateral forelimb, were counted in the analysis. Data are contralateral touches expressed as a percentage of total number of single-paw touches. […]

nAChRs [4] = test: Anesthetised in vivo voltammetry in DLS; set-up: species or system mouse; conditions: urethane-anesthetised wild-type mice, mecamylamine 2 mg/kg i.p. per FIG. 4 legend
Description: Wild type mice were anesthetised with urethane (1.4-1.9 g/kg, i.p.; Biolab), supplemented with additional urethane (0.2 g/kg) every 1-2 hr as required. All wounds and pressure points were infiltrated with bupivacaine (0.5%). Upon reaching surgical anaesthesia, the head was fixed in a stereotaxic frame (Kopf, USA). Core temperature was maintained at 35-36° C. using a homeothermic blanket and monitored via a rectal probe (TR-100, Fine Science Tools). A round piece of skull overlying the left hemisphere was removed to target the DLS (AP+1.0 mm, ML 1.6 mm, DV 2.2 mm to Bregma). A stimulating and recording array consisting of a carbon-fiber microelectrode and a bipolar stimulating electrode (MS303/3-A/SPC, P1 Technology) was positioned in the DLS. The Ag/AgCl reference electrode was implanted in another part of the forebrain. […] The location of the tip of FCV electrode was confirmed histologically.
For striatal electrical stimulation, 0.65 mA current (200 μs) was delivered through a bipolar stimulating electrode (0.005 inch, MS303/3-A/SPC, P1 Technologies). The stimulating electrode tips were separated by ˜500 μm and were glued to the FCV recording electrode to fix the tip of the FCV electrode between the two stimulating poles. […]

nAChRs [5] = test: Conditioned place preference testing after bilateral dorsal striatal infusion; assay type: in vivo, mouse; conditions: freely moving mice, 10 μg/side bilateral dorsal striatum, two days of conditioning
Description: Cannulae Placements: Male C57BL/6N mice (42-50 days) were anesthetised with isoflurane (5% induction; 1.5-2% maintenance) and placed on a stereotaxic frame for surgery. Bilateral injection needles (O.D. 0.21 mm, I.D. 0.11 mm, RWD, China) with the guide cannula (O.D. 0.41 mm, I.D. 0.25 mm, RWD, China) were implanted to the dorsal striatum either vertically or at a small angle from the vertical, with the tip of each cannula aimed at coordinates: AP+1.0 mm; ML+/−1.6 mm to bregma; DV-2.4 mm (from dura). Mice recovered for three days after surgery.
Conditioned Place Preference Testing: In CPP experiments, mice were placed in a 40 cm×40 cm transparent plexiglass arena which was divided into two equal chambers separated by doorway. The chambers were decorated with either horizontal or vertical stripes. The movement of animals was recorded and analysed with Smart V3.0 tracking software (Panlab, Spain).
On day 1, mice were allowed to freely shuttle between two chambers to assess place preference at baseline, expressed as % time spent in right chamber. […] On day 4, the post-conditioning chamber preference was calculated as the % of time spent in the right mecamylamine-associated chamber compared to on pre-conditioning day 1. […]

D2 receptors = molecular target: T1, D2 receptors (Mus musculus, UniProt P61168); test: Ex vivo slice voltammetry: DA release after light activation of ChIs, 1p vs 3p Estim, ChAT-Cre:Ai32 slices, D2 antagonism; assay type: cell-based; conditions: DLS, L-741,626 1 μM
T1 construct: striatal slices from ChAT-Cre: Ai32 mice; from tissue; host or cells: acute striatal slices (DLS) of ChAT-Cre:Ai32 mice
T1 sequence (P61168 whole entry): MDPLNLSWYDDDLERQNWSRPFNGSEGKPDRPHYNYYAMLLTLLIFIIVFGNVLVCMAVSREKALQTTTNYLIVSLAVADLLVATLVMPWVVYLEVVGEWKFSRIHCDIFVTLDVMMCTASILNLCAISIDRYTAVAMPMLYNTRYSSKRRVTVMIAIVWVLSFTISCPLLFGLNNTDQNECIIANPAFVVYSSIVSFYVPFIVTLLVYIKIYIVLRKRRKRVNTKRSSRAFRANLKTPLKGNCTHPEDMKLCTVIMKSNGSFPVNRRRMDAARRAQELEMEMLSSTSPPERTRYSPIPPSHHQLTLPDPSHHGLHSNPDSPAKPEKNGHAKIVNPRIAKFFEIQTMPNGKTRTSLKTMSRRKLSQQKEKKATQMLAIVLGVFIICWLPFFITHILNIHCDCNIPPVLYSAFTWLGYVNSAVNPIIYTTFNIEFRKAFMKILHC
Description: as §1

muscarinic receptors = conditions: DLS, atropine 2 μM
Description: For fast-scan cyclic voltammetry (FCV) in acute coronal slices, animals were anaesthetised with isoflurane. Brains were quickly removed into ice-cold, high Mg^2+ cutting solution containing in mM: 85 NaCl, 25 NaHCO3, 2.5 KCl, 1.25 NaH2PO4, 0.5 CaCl2, 7 MgCl2, 10 glucose, 65 sucrose. Brains were then blocked, and 300 μm coronal slices were cut on a vibratome (Leica VT1200S) between +1.5 to +0.5 mm from bregma containing caudate-putamen and nucleus accumbens. Slices recovered at 32° C. for 30-40 min after dissection and were subsequently kept at room temperature. Slices were maintained and recorded in artificial cerebrospinal fluid (aCSF) containing in mM: 130 NaCl, 25 NaHCO3, 2.5 KCl, 1.25 NaH2PO4, 2.5 CaCl2), 2 MgCl2, 10 glucose. The aCSF was saturated with 95% O2/5% CO2; recordings were made at 32-33° C. Extracellular DA concentration ([DA]o) was measured using FCV with 7 μm-diameter carbon fiber microelectrodes (CFMs; tip length 50-100 μm) and a Millar voltammeter (Julian Millar, Barts and the London School of Medicine and Dentistry) as previously^55. […]
The Inventors tested whether the DA release dynamics at the timepoints of ChI rebound activity are consistent with nAChR desensitisation. […] As a potential readout of the timecourse of nAChR desensitisation, the Inventors explored how the difference in [DA]o evoked by triplet versus single pulses (100 Hz) varied over time. […]

Q: With `CO[C@H]1CC=C2CCN3CCC4=C(CC(=O)OC4)[C@]23C1` [DHβE, Dihydro-β-erythroidine] as the compound, how does the “depression of [DA]o evoked by a subsequent light pulse after an electrical stimulus” value (nAChRs [1]; DLS, inter-stimulus intervals <100 ms) read?
A: relieved

Q: And the “depression of [DA]o evoked by a subsequent light pulse after an electrical stimulus” value (nAChRs [1]; NAcc, inter-stimulus intervals <50 ms)?
A: relieved

Q: What about the “axonal GCaMP6f fluorescence for a 4-pulse train (100 Hz) compared to a single pulse” value (nAChRs [2]) of the same compound?
A: markedly greater

Q: What does the source list for `CNC1(C)C2CCC(C2)C1(C)C` (centres unmarked) [mecamylamine]?
A: motor deficits: contralateral forelimb single-paw touching in cylinder test (nAChRs [3]): reduces deficits; also recorded: remediated these motor deficits; [DA]o evoked by local striatal stimulation with brief electrical pulse trains (nAChRs [4]): significantly increased; conditioned-place preference for the drug-conditioned chamber (nAChRs [5]): developed a conditioned-place preference

Q: For `OC1(c2ccc(Cl)cc2)CCN(Cc2c[nH]c3ccccc23)CC1` [L-741,626], which “dynamic DA release response after light activation of ChIs (100-400 ms interval)” value (D2 receptors) is on record?
A: persists

Q: `CN1[C@@H]2CC[C@H]1C[C@@H](OC(=O)C(CO)c1ccccc1)C2` (some centres unmarked) [atropine] was tested. Which “dynamic DA release response after light activation of ChIs (100-400 ms interval)” value (muscarinic receptors) did it give?
A: persists
